Laboratory results: ChEMBL document CHEMBL5113413, “New peptidomimetic rhodesain inhibitors with improved selectivity towards human cathepsins” (Eur J Med Chem, 2022)
Calls of active or inactive are those of the source. The rule behind the calls is not given here.

How the values were obtained:
[1] = target: Rhodesain (Trypanosoma brucei rhodesiense) (UniProt Q95PM0); assay: Inhibition of Trypanosoma brucei rhodesiense rhodesain at 20 uM using Cbz-Phe-Arg-AMC as fluorogenic substrate by fluorometric assay
Cathepsin B [2] = target: T1, Cathepsin B (Homo sapiens, UniProt P07858); assay: Inhibition of human Cathepsin B at 20 uM using Cbz-Phe-Arg-AMC as fluorogenic substrate by fluorometric assay
Rhodesain = Rhodesain (Trypanosoma brucei rhodesiense, UniProt Q95PM0); assay: Irreversible inhibition of Trypanosoma brucei rhodesiense rhodesain assessed as inhibition constant using Cbz-Phe-Arg-AMC as fluorogenic substrate by fluorometric assay
[3] = target: Rhodesain (Trypanosoma brucei rhodesiense) (UniProt Q95PM0); assay: Irreversible inhibition of Trypanosoma brucei rhodesiense rhodesain assessed as second order rate constant using Cbz-Phe-Arg-AMC as fluorogenic substrate by fluorometric assay
Procathepsin L [4] = target: T2, Procathepsin L (Homo sapiens, UniProt P07711); assay: Irreversible inhibition of human Cathepsin L assessed as second order rate constant using Cbz-Phe-Arg-AMC as fluorogenic substrate by fluorometric assay
Target sequence in this assay (P07711 114-333 limits assumed): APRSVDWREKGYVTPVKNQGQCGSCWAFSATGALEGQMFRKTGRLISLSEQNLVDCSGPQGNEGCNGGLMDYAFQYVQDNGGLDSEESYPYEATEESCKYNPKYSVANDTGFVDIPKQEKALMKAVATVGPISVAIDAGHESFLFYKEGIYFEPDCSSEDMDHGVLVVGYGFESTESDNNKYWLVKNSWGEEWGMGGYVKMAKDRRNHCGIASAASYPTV

[5] = target: Rhodesain (Trypanosoma brucei rhodesiense) (UniProt Q95PM0); assay: Irreversible inhibition of Trypanosoma brucei rhodesiense rhodesain assessed as Kinact using Cbz-Phe-Arg-AMC as fluorogenic substrate by fluorometric assay
Procathepsin L [6] = target: T2, Procathepsin L; assay: Irreversible inhibition of human Cathepsin L assessed as Kinact using Cbz-Phe-Arg-AMC as fluorogenic substrate by fluorometric assay
Target sequence in this assay (P07711 114-333 limits assumed): as above

Procathepsin L [7] = target: T2, Procathepsin L; assay: Irreversible inhibition of human Cathepsin L assessed as inhibition constant using Cbz-Phe-Arg-AMC as fluorogenic substrate by fluorometric assay
Target sequence in this assay (P07711 whole entry): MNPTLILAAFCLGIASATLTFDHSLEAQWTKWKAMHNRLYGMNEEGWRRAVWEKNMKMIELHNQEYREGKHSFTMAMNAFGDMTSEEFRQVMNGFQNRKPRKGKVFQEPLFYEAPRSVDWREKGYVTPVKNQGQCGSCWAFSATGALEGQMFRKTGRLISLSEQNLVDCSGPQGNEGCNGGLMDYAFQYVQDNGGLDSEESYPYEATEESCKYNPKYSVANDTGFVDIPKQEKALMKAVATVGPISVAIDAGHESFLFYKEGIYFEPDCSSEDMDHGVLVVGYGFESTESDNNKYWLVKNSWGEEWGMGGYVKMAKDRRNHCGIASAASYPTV

[8] = Cytotoxicity against mouse J774.1 cells assessed as reduction in cell viability incubated for 48 hrs by MTT assay; type: toxicity, cell-based
[9] = test system: Trypanosoma brucei brucei; assay: Antitrypanosomal activity against Trypanosoma brucei brucei BS449 assessed as luminescence incubated for 48 hrs by ATPlite assay; type: functional, organism-based; conditions: BS449, 48 h
Procathepsin L [10] = target: T2, Procathepsin L; assay: Inhibition of human Cathepsin L at 20 uM using Cbz-Phe-Arg-AMC as fluorogenic substrate by fluorometric assay
Target sequence in this assay (P07711 114-333 limits assumed): as the sequence (P07711 114-333 limits assumed) above

Cathepsin B [11] = target: T1, Cathepsin B; assay: Irreversible inhibition of human Cathepsin B assessed as inhibition constant using Cbz-Phe-Arg-AMC as fluorogenic substrate by fluorometric assay
Cathepsin B [12] = target: T1, Cathepsin B; assay: Irreversible inhibition of human Cathepsin B assessed as Kinact using Cbz-Phe-Arg-AMC as fluorogenic substrate by fluorometric assay
[13] = target: T3, 20S proteasome (Homo sapiens) (UniProt P49721+P20618+P28074+P28062+P28065+P28072+P25786+P25787+P25788+P25789+P28066+P60900+O14818+Q8TAA3+P40306+A5LHX3+P49720+P28070+Q99436); assay: Inhibition of human 20S proteasome caspase-like activity at 11 uM using Cbz-Leu-Leu-Glu-AMC as fluorogenic substrate by fluorometric assay; type: protein-complex assay
Cathepsin B [14] = target: T1, Cathepsin B; assay: Irreversible inhibition of human Cathepsin B assessed as second order rate constant using Cbz-Phe-Arg-AMC as fluorogenic substrate by fluorometric assay
[15] = target: T3, 20S proteasome (Homo sapiens); assay: Inhibition of human 20S proteasome chymotrypsin-like activity at 11 uM using Succ-Leu-Leu-Val-Tyr-AMC as fluorogenic substrate by fluorometric assay; type: protein-complex assay
[16] = target: Genome polyprotein (dengue virus type 2) (UniProt P29990); assay: Inhibition of Dengue virus NS2B-NS3 protease at 11 uM using Boc-Gly-Arg-Arg-AMC as fluorogenic substrate by fluorometric assay
[17] = target: Rhodesain (Trypanosoma brucei rhodesiense) (UniProt Q95PM0); assay: Irreversible inhibition of Trypanosoma brucei rhodesiense rhodesain assessed as no recovery of enzyme activity preincubated for 30 mins followed by substrate addition using Cbz-Phe-Arg-AMC as fluorogenic substrate by fluorometric 100-fold dilution assay
[18] = target: Rhodesain (Trypanosoma brucei rhodesiense) (UniProt Q95PM0); assay: Reversible inhibition of Trypanosoma brucei rhodesiense rhodesain assessed as recovery of enzyme activity preincubated for 30 mins followed by substrate addition using Cbz-Phe-Arg-AMC as fluorogenic substrate by fluorometric 100-fold dilution assay
[19] = target: T3, 20S proteasome (Homo sapiens); assay: Inhibition of human 20S proteasome trypsin-like activity at 11 uM using Boc-Leu-Arg-Arg-AMC as fluorogenic substrate by fluorometric assay; type: protein-complex assay

Chain of Rhodesain (Trypanosoma brucei rhodesiense) (Q95PM0 1-450): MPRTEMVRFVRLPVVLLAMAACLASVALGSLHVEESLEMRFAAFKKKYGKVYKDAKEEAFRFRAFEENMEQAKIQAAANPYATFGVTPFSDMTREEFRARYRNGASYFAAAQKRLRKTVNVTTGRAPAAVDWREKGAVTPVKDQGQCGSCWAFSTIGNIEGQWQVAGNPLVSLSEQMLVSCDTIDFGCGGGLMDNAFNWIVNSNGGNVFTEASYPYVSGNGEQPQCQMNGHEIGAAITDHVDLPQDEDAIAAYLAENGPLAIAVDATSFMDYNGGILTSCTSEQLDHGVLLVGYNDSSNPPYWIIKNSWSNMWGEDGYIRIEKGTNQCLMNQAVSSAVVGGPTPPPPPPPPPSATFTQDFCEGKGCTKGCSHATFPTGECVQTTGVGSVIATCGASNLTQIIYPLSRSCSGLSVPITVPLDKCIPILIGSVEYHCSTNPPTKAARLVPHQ
Chain of Rhodesain (Q95PM0 whole entry): as the sequence (Q95PM0 1-450) above

CN1CCN(C(=O)NCc2ccccc2C(=O)N[C@H](/C=C(\F)S(=O)(=O)c2ccccc2)CCc2ccccc2)CC1 gave an inhibition [1] of 18%.
With O=C(NCc1ccccc1C(=O)N[C@H](/C=C/S(=O)(=O)c1ccccc1)CCc1ccccc1)c1ccncc1 the inhibition (Cathepsin B [2]) was 44%, the Ki (Rhodesain) was 107 nM and the Second-order inactivation rate constant (kinact/Ki) [3] was 0.43 10^5/M/s. For the same compound, the Second-order inactivation rate constant (Procathepsin L [4]) was 1.16 10^3/M/s, the Kinact [5] was 0.0046 s⁻¹ and the Kinact (Procathepsin L [6]) was 0.0026 s⁻¹. It also gave a Ki (Procathepsin L [7]) of 2250 nM.
O=C(NCc1ccccc1C(=O)N[C@H](/C=C(\F)S(=O)(=O)c1ccccc1)CCc1ccccc1)c1ccncc1 showed an inhibition (Cathepsin B [2]) of under 10%, a Ki (Rhodesain) of 430 nM and a Ki (Procathepsin L [7]) of 14100 nM.
O=C(O)c1cccc(C(=O)NCc2ccccc2C(=O)N[C@H](/C=C/S(=O)(=O)c2ccccc2)CCc2ccccc2)c1 showed a CC50 at 48 h [8] of over 100000 nM, a Ki (Rhodesain) of 7430 nM and an EC50 [9] of 15000 nM.
In the case of CN1CCN(C(=O)NCc2ccccc2C(=O)N[C@H](/C=C/S(=O)(=O)Cc2ccccc2)CCc2ccccc2)CC1, the Ki (Rhodesain) is reported as 318 nM, the Second-order inactivation rate constant (kinact/Ki) [3] is reported as 0.16 10^5/M/s and the Kinact [5] is reported as 0.005 s⁻¹.
O=C(NCc1ccccc1C(=O)N[C@H](/C=C(\F)S(=O)(=O)Oc1ccccc1)CCc1ccccc1)c1cc(F)cc(F)c1 gave an inhibition (Cathepsin B [2]) of under 10%, a Ki (Rhodesain) of 638 nM and an inhibition (Procathepsin L [10]) of 14%.
In the case of O=C(NCc1ccccc1C(=O)N[C@H](/C=C/S(=O)(=O)Oc1ccccc1)CCc1ccccc1)c1ccc2c(c1)OCCO2, the Ki (Cathepsin B [11]) is reported as 800 nM, the Ki (Rhodesain) is reported as 10 nM and the Second-order inactivation rate constant (kinact/Ki) [3] is reported as 7.9 10^5/M/s. For the same compound, the Kinact (Cathepsin B [12]) was 0.013 s⁻¹, the inhibition [13] was 43% and the Kdiss (Cathepsin B [14]) was 1.64 10^4/M/s. The Second-order inactivation rate constant (Procathepsin L [4]) was 3.34 10^4/M/s, the Kinact [5] was 0.0079 s⁻¹ and the Kinact (Procathepsin L [6]) was 0.0104 s⁻¹. The inhibition [15] was 12%, the inhibition [16] was 31% and the Ki (Procathepsin L [7]) was 310 nM. The inhibition [17] was “Active”.
O=C(NCc1ccccc1C(=O)N[C@H](/C=C(\F)S(=O)(=O)Oc1ccccc1)CCc1ccccc1)c1ccncc1 gave a CC50 at 48 h [8] of over 100000 nM, a Ki (Rhodesain) of 916 nM and an EC50 [9] of 1800 nM.
For O=C(NCc1ccccc1C(=O)N[C@H](/C=C/S(=O)(=O)Cc1ccccc1)CCc1ccccc1)c1ccncc1, the Ki (Rhodesain) was 436 nM, the Second-order inactivation rate constant (kinact/Ki) [3] was 0.14 10^5/M/s and the Kinact [5] was 0.006 s⁻¹.
For O=C(NCc1ccccc1C(=O)N[C@H](/C=C/S(=O)(=O)Oc1ccccc1)CCc1ccccc1)c1cc(F)cc(F)c1, the Ki (Cathepsin B [11]) was 760 nM, the Ki (Rhodesain) was 15 nM and the Second-order inactivation rate constant (kinact/Ki) [3] was 7.8 10^5/M/s. The Kinact (Cathepsin B [12]) was 0.0071 s⁻¹, the inhibition [13] was 33% and the Kdiss (Cathepsin B [14]) was 9.34 10^3/M/s. For the same compound, the Second-order inactivation rate constant (Procathepsin L [4]) was 3.92 10^3/M/s, the Kinact [5] was 0.0117 s⁻¹ and the Kinact (Procathepsin L [6]) was 0.0022 s⁻¹. The inhibition [15] was 14%, the inhibition [16] was 35% and the Ki (Procathepsin L [7]) was 560 nM.
CNC(=O)Cc1ccccc1C(=O)N[C@H](/C=C/S(=O)(=O)c1ccccc1)CCc1ccccc1 gave a CC50 at 48 h [8] of over 100000 nM, a Ki (Rhodesain) of 470 nM and an EC50 [9] of 13000 nM.
For O=C(NCc1ccccc1C(=O)N[C@H](/C=C/S(=O)(=O)Cc1ccccc1)CCc1ccccc1)c1cc(F)cc(F)c1, the inhibition (Cathepsin B [2]) was under 10%, the Ki (Rhodesain) was 356 nM and the Second-order inactivation rate constant (kinact/Ki) [3] was 0.35 10^5/M/s. The Kinact [5] was 0.0125 s⁻¹ and the inhibition (Procathepsin L [10]) was 31%.
For O=C(NCc1ccccc1C(=O)N[C@H](/C=C/S(=O)(=O)c1ccccc1)CCc1ccccc1)c1cc(F)cc(F)c1, the Ki (Cathepsin B [11]) was 3040 nM, the Ki (Rhodesain) was 109 nM and the Second-order inactivation rate constant (kinact/Ki) [3] was 1.59 10^5/M/s. For the same compound, the Kinact (Cathepsin B [12]) was 0.0022 s⁻¹, the inhibition [13] was 24% and the Kdiss (Cathepsin B [14]) was 7.24 10^2/M/s. For the same compound, the Second-order inactivation rate constant (Procathepsin L [4]) was 2.38 10^3/M/s, the Kinact [5] was 0.0173 s⁻¹ and the Kinact (Procathepsin L [6]) was 0.0045 s⁻¹. For the same compound, the inhibition [16] was 11% and the Ki (Procathepsin L [7]) was 1890 nM.
With O=C(NCc1ccccc1C(=O)N[C@H](/C=C(\F)S(=O)(=O)Oc1ccccc1)CCc1ccccc1)c1ccc2c(c1)OCCO2 the inhibition (Cathepsin B [2]) was under 10%, the CC50 at 48 h [8] was over 100000 nM and the Ki (Rhodesain) was 379 nM. The EC50 [9] was 3000 nM, the inhibition [18] was “Active” and the inhibition (Procathepsin L [10]) was 23%. For the same compound, the inhibition [17] was “Active”.
Work on O=C(NCc1ccccc1C(=O)N[C@H](/C=C/S(=O)(=O)c1ccccc1)CCc1ccccc1)c1cccc(O)c1 yielded a CC50 at 48 h [8] of 36000 nM, a Ki (Rhodesain) of 651 nM and an EC50 [9] of 3300 nM.
For O=C(NCc1ccccc1C(=O)N[C@H](/C=C/S(=O)(=O)c1ccccc1)CCc1ccccc1)c1ccccc1, the Ki (Cathepsin B [11]) was 1980 nM, the CC50 at 48 h [8] was over 100000 nM and the inhibition [19] was 23%. For the same compound, the Ki (Rhodesain) was 100 nM, the EC50 [9] was 3600 nM and the inhibition [13] was 39%. It also gave an inhibition [15] of 14% and a Ki (Procathepsin L [7]) of 1490 nM.
